Laboratory results from US20090325959A1 (priority 2008, published 2009).
Read-outs that look alike come from different tables or passages of the source.

Tests used:
Akt3 human enzyme = target: T1, Akt3 human enzyme (Homo sapiens, UniProt Q9Y243); experiment: Akt3 inhibition assay (IMAP FP); format: biochemical;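 further: kinase reaction run 60 min at room temperature after 30 µM ATP start, phosphorylated substrate captured on IMAP beads and read as fluorescence polarization (mP)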
T1 construct: purchased Upstate Chemicon 14-502
T1 sequence (Q9Y243 whole entry): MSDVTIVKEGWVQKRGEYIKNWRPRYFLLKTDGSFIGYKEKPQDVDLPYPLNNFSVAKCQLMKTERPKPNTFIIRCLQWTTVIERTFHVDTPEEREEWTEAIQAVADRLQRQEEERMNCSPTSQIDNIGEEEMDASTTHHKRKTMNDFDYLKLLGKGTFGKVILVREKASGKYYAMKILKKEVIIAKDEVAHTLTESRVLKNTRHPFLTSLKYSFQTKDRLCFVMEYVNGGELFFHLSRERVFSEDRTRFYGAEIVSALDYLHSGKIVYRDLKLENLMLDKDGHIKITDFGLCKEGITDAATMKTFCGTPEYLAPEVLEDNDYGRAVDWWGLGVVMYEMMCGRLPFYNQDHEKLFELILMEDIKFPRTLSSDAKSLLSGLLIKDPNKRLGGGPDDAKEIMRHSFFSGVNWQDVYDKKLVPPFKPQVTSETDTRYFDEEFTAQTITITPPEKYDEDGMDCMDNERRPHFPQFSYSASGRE

ROCK2 = target: T2, ROCK2 (Homo sapiens, UniProt O75116); experiment: Rho kinase inhibition assay (IMAP fluorescence polarization), ROCK2; format: biochemical;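 further: kinase reaction started with 10 µM ATP and run 60 min at room temperature, then phosphorylated substrate captured on IMAP beads for 30 min and fluorescence polarization read in mP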
T2 construct: purchased Upstate/Chemicon 14-451
T2 sequence (O75116 11-552 limits assumed): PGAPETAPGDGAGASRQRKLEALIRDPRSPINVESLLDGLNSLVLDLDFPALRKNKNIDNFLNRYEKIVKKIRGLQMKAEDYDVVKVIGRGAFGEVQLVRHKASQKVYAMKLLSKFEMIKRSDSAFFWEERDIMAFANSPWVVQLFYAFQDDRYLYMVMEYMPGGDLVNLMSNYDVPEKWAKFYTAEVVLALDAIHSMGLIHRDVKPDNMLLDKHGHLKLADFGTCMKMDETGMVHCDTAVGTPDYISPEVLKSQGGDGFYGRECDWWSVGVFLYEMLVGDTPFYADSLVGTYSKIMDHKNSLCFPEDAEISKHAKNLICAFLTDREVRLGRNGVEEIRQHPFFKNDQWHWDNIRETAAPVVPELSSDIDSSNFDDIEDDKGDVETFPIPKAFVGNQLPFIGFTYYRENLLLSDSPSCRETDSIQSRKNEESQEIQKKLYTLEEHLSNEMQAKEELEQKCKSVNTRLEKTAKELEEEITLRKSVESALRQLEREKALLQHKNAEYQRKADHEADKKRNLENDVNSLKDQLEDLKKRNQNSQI
Procedure: (§1) Following the pre-incubation, 10 μM ATP was added to initiate the reaction. After 60 minutes at room temperature, Molecular Devices IMAP™ binding solution was added to bind phosphorylated substrate. After 30 minutes of incubation in the presence of the IMAP™ beads, the fluorescence polarization was read and the ratio was reported as mP. IC50 values for compounds and EC50 values for ATP were calculated using the Prism software from Graphpad.

ROCK1 = target: T3, ROCK1 (Homo sapiens, UniProt Q13464); experiment: Rho kinase inhibition assay (IMAP fluorescence polarization), ROCK1; format: biochemical;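 further: kinase reaction run 60 min at room temperature, then phosphorylated substrate captured on IMAP beads for 30 min, with fluorescence polarization read in mP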
T3 construct: purchased Upstate/Chemicon 14-601
T3 sequence (Q13464 17-535 limits assumed): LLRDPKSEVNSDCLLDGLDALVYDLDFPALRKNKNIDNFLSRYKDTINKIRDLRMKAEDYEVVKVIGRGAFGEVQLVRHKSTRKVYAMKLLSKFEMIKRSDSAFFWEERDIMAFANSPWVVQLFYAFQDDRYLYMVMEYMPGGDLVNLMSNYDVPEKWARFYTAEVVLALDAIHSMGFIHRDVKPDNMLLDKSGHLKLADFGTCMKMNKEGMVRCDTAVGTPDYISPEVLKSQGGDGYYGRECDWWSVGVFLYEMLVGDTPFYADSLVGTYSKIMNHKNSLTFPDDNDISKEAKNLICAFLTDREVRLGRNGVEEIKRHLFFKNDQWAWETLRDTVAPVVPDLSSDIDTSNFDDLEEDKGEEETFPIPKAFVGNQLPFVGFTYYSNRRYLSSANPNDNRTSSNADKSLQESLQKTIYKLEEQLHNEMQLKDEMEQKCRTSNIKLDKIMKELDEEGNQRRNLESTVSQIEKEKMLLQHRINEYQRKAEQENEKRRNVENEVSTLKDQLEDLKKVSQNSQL
Procedure: as §1

p70S6K human enzyme = target: T4, p70S6K human enzyme (Homo sapiens, UniProt P23443, T412E); experiment: p70S6K inhibition assay (IMAP FP); format: biochemical;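 further: kinase reaction run at room temperature, phosphorylated substrate captured on IMAP beads and read as fluorescence polarization in mP, IC50 then converted to Ki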
T4 construct: purchased Upstate Chemicon 14-486
T4 sequence (P23443 1-421 T412E limits assumed): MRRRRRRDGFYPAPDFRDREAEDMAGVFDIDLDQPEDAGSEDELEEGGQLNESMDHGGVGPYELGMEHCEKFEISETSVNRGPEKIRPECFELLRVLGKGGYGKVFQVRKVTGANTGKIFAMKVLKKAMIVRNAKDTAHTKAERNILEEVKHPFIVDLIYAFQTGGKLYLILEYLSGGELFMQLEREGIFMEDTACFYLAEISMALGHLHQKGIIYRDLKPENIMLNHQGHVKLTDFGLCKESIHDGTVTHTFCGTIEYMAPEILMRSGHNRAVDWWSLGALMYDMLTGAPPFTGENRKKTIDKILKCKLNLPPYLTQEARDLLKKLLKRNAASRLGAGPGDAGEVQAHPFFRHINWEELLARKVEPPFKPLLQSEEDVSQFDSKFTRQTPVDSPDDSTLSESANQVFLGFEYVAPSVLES

[1] = Compound plasma concentrations in unsensitized mice at 15 min post administration; format: in vivo; details: mouse, 15 μmol/kg; mean compound plasma concentration in mice at 15 minutes post oral administration; read-out: Mouse Oral PK
[2] = 30 μM ATP, Ki=IC50/(1+([ATP Challenge]/EC50 ATP)), read-out: Akt3 Ki, Avg
[3] = 10 μM ATP, read-out: ROCK2 Ki, Avg
[4] = 30 μM ATP, Ki=IC50/(1+([ATP Challenge]/EC50 ATP)), read-out: p70S6K Ki, Avg
[5] = average Ki, read-out: p70S6K Ki

| SMILES | Ki (Akt3 human enzyme; [2]) [µM] | Ki (ROCK2; [3]) [nM] | Ki (ROCK1; Avg, 10 μM ATP) [nM] | Ki (p70S6K human enzyme; [4]) [nM] | Ki (Akt3 human enzyme; average Ki, read-out: Akt3 Ki) [µM] | Ki (ROCK2; average Ki, read-out: ROCK2 Ki) [nM] | concentration at 15 min [1] [nM] | Ki (ROCK1; average Ki) [nM] | Ki (p70S6K human enzyme; [5]) [nM] |
| --- | --- | --- | --- | --- | --- | --- | --- | --- | --- |
| NC(=O)Cn1ccc2ccc(CN3CCC[C@@H](Nc4ccc5[nH]ncc5c4)C3)cc21 [Compound 1.106, (R)-2-(6-((3-(1H-indazol-5-ylamino)piperidin-1-yl)methyl)-1H-indol-1-yl)acetamide] | 3.91 | 15.1 | 223 | 1330 |  |  |  |  |  |
| C#Cc1cccc(CN2CCC[C@H](Nc3ccc4[nH]ncc4c3)C2)c1 [Compound 1.153, (S)-N-(1-(3-ethynylbenzyl)piperidin-3-yl)-1H-indazol-5-amine] | 9.95 | 4.2 | 62.8 | 2380 | 9.95 | 4.2 | 522 | 62.8 | 2380 |
| Oc1cccc(CN2CCC[C@@H](Nc3ccc4[nH]ncc4c3)C2)c1 [Compound 1.145, (R)-3-((3-(1H-indazol-5-ylamino)piperidin-1-yl)methyl)phenol] | 1.19 | 6.4 | 35 | 2300 |  |  |  |  |  |
| Oc1cccc(CN2CC[C@@H](Nc3cccc4cnccc34)C2)c1 [Compound 2.061, (R)-3-((3-(isoquinolin-5-ylamino)pyrrolidin-1-yl)methyl)phenol] |  | 1.8 | 10.5 |  |  | 1.8 | 73 | 10.5 |  |
| c1ccc(CN2CCC[C@H](Nc3ccc4[nH]ncc4c3)C2)cc1 [Compound 1.227, (S)-N-(1-benzylpiperidin-3-yl)-1H-indazol-5-amine] | 3.48 | 5.3 | 47.5 | 1580 |  |  |  |  |  |
| CSc1cccc(CN2CCC[C@@H](Nc3ccc4[nH]ncc4c3)C2)c1 [Compound 1.159, (R)-N-(1-(3-(methylthio)benzyl)piperidin-3-yl)-1H-indazol-5-amine] | 1.23 | 10.1 | 48.1 | 2060 |  |  |  |  |  |
| Cc1ccc(CN2CCC[C@H](Nc3ccc4[nH]ncc4c3)C2)cc1 [Compound 1.078, (S)-N-(1-(4-methylbenzyl)piperidin-3-yl)-1H-indazol-5-amine] | 3.27 | 3.6 | 36.3 | 1680 |  |  |  |  |  |
| Cc1ccc(S(=O)(=O)Nc2cc(CN3CCC[C@@H](Nc4ccc5[nH]ncc5c4)C3)ccc2C)cc1 [Compound 1.260, (R)-N-(5-((3-(1H-indazol-5-ylamino)piperidin-1-yl)methyl)-2-methylphenyl)-4-methylbenzenesulfonamide] |  | 7.1 | 70.9 |  |  | 7.1 | 291 | 70.9 |  |
| c1cc2c(cc1CN1CCC[C@@H](Nc3ccc4[nH]ncc4c3)C1)CCO2 [Compound 1.246, (R)-N-(1-((2,3-dihydrobenzofuran-5-yl)methyl)piperidin-3-yl)-1H-indazol-5-amine] | 1.1 | 11.2 | 92.1 | 1880 |  |  |  |  |  |
| Fc1ccc(CN2CCC[C@H](Nc3ccc4[nH]ncc4c3)C2)cc1F [Compound 1.072, (S)-N-(1-(3,4-difluorobenzyl)piperidin-3-yl)-1H-indazol-5-amine] | 4.75 | 5.6 | 33.7 | 1130 |  |  |  |  |  |
| Brc1ccc(CN2CCC[C@H](Nc3ccc4[nH]ncc4c3)C2)cc1 [Compound 1.142, (S)-N-(1-(4-bromobenzyl)piperidin-3-yl)-1H-indazoi-5-amine] | 8.27 | 12 | 104 | 2520 |  |  |  |  |  |
| FC(F)(F)c1ccc(CN2CCC[C@@H](Nc3ccc4[nH]ncc4c3)C2)cc1 [Compound 1.178, (R)-N-(1-(4-(trifluoromethyl)benzyl)piperidin-3-yl)-1H-indazol-5-amine] | 0.711 | 24.9 | 138 | 1120 |  |  |  |  |  |
| c1ccc(CN2CCC[C@@H](Nc3ccc4[nH]ncc4c3)C2)cc1 [Compound 1.110, (R)-N-(1-benzylpiperidin-3-yl)-1H-indazol-5-amine] | 0.463 | 11.2 | 59 | 1300 |  |  |  |  |  |
| C=Cc1ccc(CN2CCC[C@@H](Nc3ccc4[nH]ncc4c3)C2)cc1 [Compound 1.208, (R)-N-(1-(4-vinylbenzyl)piperidin-3-yl)-1H-indazol-5-amine] | 0.346 | 12.9 | 54.2 | 721 |  |  |  |  |  |
| Fc1ccc(CN2CCC[C@@H](Nc3ccc4[nH]ncc4c3)C2)cc1 [Compound 1.146, (R)-N-(1-(4-fluorobenzyl)piperidin-3-yl)-1H-indazol-5-amine] | 0.205 | 10.7 | 39.8 | 742 |  |  |  |  |  |
| Brc1cccc(CN2CCC[C@H](Nc3ccc4[nH]ncc4c3)C2)c1 [Compound 1.183, (S)-N-(1-(3-bromobenzyl)piperidin-3-yl)-1H-indazol-5-amine] | 9.01 | 16.8 | 165 | 2480 |  |  |  |  |  |
| c1cc2cc(CN3CCC[C@@H](Nc4ccc5[nH]ncc5c4)C3)ccc2[nH]1 [Compound 1.143, (R)-N-(1-((1H-indol-5-yl)methyl)piperidin-3-yl)-1H-indazol-5-amine] | 0.707 | 12.6 | 49.7 | 538 |  |  |  |  |  |
| CCS(=O)(=O)Nc1cc(CN2CCC[C@@H](Nc3ccc4[nH]ncc4c3)C2)ccc1C [Compound 1.259, (R)-N-(5-((3-(1H-indazol-5-ylamino)piperidin-1-yl)methyl)-2-methylphenyl)ethanesulfonamide] |  | 2.1 | 19.5 |  |  | 2.1 | 264 | 19.5 |  |
| O=C(COc1cccc(CN2CCC[C@@H](Nc3ccc4[nH]ncc4c3)C2)c1)Nc1cccnc1 [Compound 1.126, (R)-2-(3-((3-(1H-indazol-5-ylamino)piperidin-1-yl)methyl)phenoxy)-N-(pyridin-3-yl)acetamide] |  | 17.2 | 76.2 |  |  | 17.2 | 0 | 76.2 |  |
| c1cc(N[C@@H]2CCN(Cc3ccc4cc[nH]c4c3)C2)c2ccncc2c1 [Compound 2.057, (R)-N-(1-((1H-indol-6-yl)methyl)pyrrolidin-3-yl)isoquinolin-5-amine] |  | 3.7 | 6.2 |  |  | 3.7 | 431 | 6.2 |  |
| O=C(COc1cccc(CN2CCC[C@@H](Nc3ccc4[nH]ncc4c3)C2)c1)N1CCOCC1 [Compound 1.127, (R)-2-(3-((3-(1H-indazol-5-ylamino)piperidin-1-yl)methyl)phenoxy)-1-morpholinoethanone] | 0.975 | 11.2 | 96.6 | 2070 |  |  |  |  |  |
| COc1ccc(CN2CCC[C@@H](Nc3ccc4[nH]ncc4c3)C2)cc1 [Compound 1.226, (R)-N-(1-(4-methoxybenzyl)piperidin-3-yl)-1H-indazol-5-amine] | 0.531 | 8.8 | 91.7 | 1350 |  |  |  |  |  |
| C#Cc1cccc(CN2CCC[C@@H](Nc3ccc4[nH]ncc4c3)C2)c1 [Compound 1.193, (R)-N-(1-(3-ethynylbenzyl)piperidin-3-yl)-1H-indazol-5-amine] |  | 14.8 | 64.9 |  |  | 14.8 | 55 | 64.9 |  |
| Clc1cccc(CN2CCC[C@H](Nc3ccc4[nH]ncc4c3)C2)c1 [Compound 1.170, (S)-N-(1-(3-chlorobenzyl)piperidin-3-yl)-1H-indazol-5-amine] | 7.81 | 12.5 | 80 | 2050 |  |  |  |  |  |
| c1cc(N[C@@H]2CCN(Cc3ccc4[nH]ccc4c3)C2)c2ccncc2c1 [Compound 2.065, (R)-N-(1-((1H-indol-5-yl)methyl)pyrrolidin-3-yl)isoquinolin-5-amine] |  | 1.8 | 4.1 |  |  | 1.8 | 236 | 4.1 |  |
| C=Cc1ccc(CN2CCC[C@H](Nc3ccc4[nH]ncc4c3)C2)cc1 [Compound 1.229, (S)-N-(1-(4-vinylbenzyl)piperidin-3-yl)-1H-indazol-5-amine] | 24.6 | 18.4 | 121 | 3130 |  |  |  |  |  |
| CC(C)(C)OC(=O)NCc1cccc(CN2CCC[C@H](Nc3ccc4[nH]ncc4c3)C2)c1 [Compound 1.176, (S)-tert-butyl 3-((3-(1H-indazol-5-ylamino)piperidin-1-yl)methyl)benzylcarbamate] | 20.9 |  | 314 | 8760 | 20.9 |  | 89 | 314 | 8760 |
| CCc1ccc(CN2CCC[C@H](Nc3ccc4[nH]ncc4c3)C2)cc1 [Compound 1.154, (S)-N-(1-(4-ethylbenzyl)piperidin-3-yl)-1H-indazol-5-amine] | 4.95 | 6.6 | 52.7 | 1130 |  |  |  |  |  |
| c1cc(C2CC2)ccc1CN1CCC[C@H](Nc2ccc3[nH]ncc3c2)C1 [Compound 1.185, (S)-N-(1-(4-cyclopropylbenzyl)piperidin-3-yl)-1H-indazol-5-amine] | 4.22 | 12.6 | 81.6 | 1150 |  |  |  |  |  |
